The source of these data is the NIST ThermoML archive (doi:10.1016/j.tca.2017.08.010).

The series in a line: mn = molality of the nth substance listed, in mol/kg. Conditions: 101 kPa, Liquid, Optical method.

On to `CN1c2ccccc2Sc2ccccc21` [10-methylphenothiazine] + COC(=O)OC, for which the binary diffusion coefficient came out at 9.16e-10 m2/s (288.15 K, m1 = 0.023); 6.72e-10 m2/s (288.15 K, m1 = 0.071); 8.56e-10 m2/s (288.15 K, m1 = 0.119); 1.11e-09 m2/s (293.15 K, m1 = 0.023); 8.44e-10 m2/s (293.15 K, m1 = 0.071); 1.04e-09 m2/s (293.15 K, m1 = 0.119). Besides, the binary diffusion coefficient reads like this: (298.15 K, m1 = 0.023) 1.32e-09 m2/s; (298.15 K, m1 = 0.071) 1.06e-09 m2/s; (298.15 K, m1 = 0.119) 1.26e-09 m2/s; (303.15 K, m1 = 0.023) 1.54e-09 m2/s; (303.15 K, m1 = 0.071) 1.32e-09 m2/s; (303.15 K, m1 = 0.119) 1.47e-09 m2/s. In addition, the binary diffusion coefficient turned out to be 1.79e-09 m2/s (308.15 K, m1 = 0.023); 1.59e-09 m2/s (308.15 K, m1 = 0.071); 1.71e-09 m2/s (308.15 K, m1 = 0.119); 2.07e-09 m2/s (313.15 K, m1 = 0.023); 1.92e-09 m2/s (313.15 K, m1 = 0.071); 1.99e-09 m2/s (313.15 K, m1 = 0.119).

Regarding `[Cl-].[K+]` [potassium chloride] + O, under “298.15 K, m1 = 0.342”, the binary diffusion coefficient came out at 1.81e-09 m2/s.
